# Source: patent US9498387B2, “Absorbent article having bent sections” (UNICHARM CORPORATION, priority 2012, dated 2016)
# From the text: As used herein, the term “solubility” in regard to water solubility includes cases where the sample completely dissolves in deionized water to form a homogeneous mixture, and cases where the sample is completely emulsified. As used herein, “completely” means that no mass of the sample remains in the deionized water.
row,Water solubility [g],Compound
1,<0.05,CCCCCCCCCCCCCC(=O)OCCCCCCCCCCCC [2-19]
2,<0.05,CCCCCCCCCCCCOC(=O)CCCCCCCCCCC [2-18]
